Test results from ChEMBL document CHEMBL1201862, “PubChem BioAssay data set” (2004).
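In this assay, cells in 96-well plates receive the compound at five concentrations for 48 hours. Endpoints are linearly interpolated between the surrounding concentrations. GI50 = concentration required for 50% inhibition of growth.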 Active and inactive are the calls of the source. No stated cut-off is given here; in the data, active = GI50 up to about 1.1 µM and inactive = higher.

Columns and labels:
Assay in all cases: NCI tumour cell line growth inhibition, 48 h
EKVX = test system: EKVX
CAKI-1 = test system: CAKI-1
DMS-273 = test system: DMS-273
NCI-H460 = test system: NCI-H460
SK-OV-3 = test system: SK-OV-3
UACC-257 = test system: UACC-257
NCI-H23 = test system: NCI-H23
MOLT-4 = test system: MOLT-4
HCC 2998 = test system: HCC 2998
CCRF-CEM = test system: CCRF-CEM
SN12C = test system: SN12C
HCT-15 = test system: HCT-15
DLD-1 = test system: DLD-1
OVCAR-3 = test system: OVCAR-3
SF-268 = test system: SF-268
HCT-116 = test system: HCT-116
RPMI-8226 = test system: RPMI-8226
SNB-75 = test system: SNB-75
UO-31 = test system: UO-31
M14 = test system: M14
SNB-78 = test system: SNB-78
ACHN = test system: ACHN
SK-MEL-28 = test system: SK-MEL-28
A498 = test system: A498
SF-539 = test system: SF-539
M19-MEL = test system: M19-MEL
HT-29 = test system: HT-29
NCI-H226 = test system: NCI-H226
DMS-114 = test system: DMS-114
OVCAR-8 = test system: OVCAR-8
A549 = test system: A549
SR = test system: SR
KM-20L2 = test system: KM-20L2
K562 = test system: K562
LOX IMVI = test system: LOX IMVI
RXF 393 = test system: RXF 393
UACC-62 = test system: UACC-62
SF-295 = test system: SF-295
SK-MEL-2 = test system: SK-MEL-2
NCI-H522 = test system: NCI-H522
OVCAR-4 = test system: OVCAR-4
LXFL 529 = test system: LXFL 529
786-0 = test system: 786-0
HL-60 = test system: HL-60
HOP-92 = test system: HOP-92
U-251 = test system: U-251
HOP-18 = test system: HOP-18
KM12 = test system: KM12
Malme-3M = test system: Malme-3M
COLO 205 = test system: COLO 205
OVCAR-5 = test system: OVCAR-5
SW-620 = test system: SW-620
IGROV-1 = test system: IGROV-1
SNB-19 = test system: SNB-19
TK-10 = test system: TK-10
SK-MEL-5 = test system: SK-MEL-5
HOP-62 = test system: HOP-62

Measured: GI50

Cc1cccc(C)c1NC(=O)C(=O)C1C(=O)N(c2ccccc2)N=C1N (stereo not drawn)
> 100 µM: HCT-15
inactive: EKVX > 100 µM | CAKI-1 > 100 µM | DMS-273 > 100 µM | NCI-H460 > 100 µM | SK-OV-3 > 100 µM | UACC-257 > 100 µM | NCI-H23 > 100 µM | MOLT-4 > 100 µM | HCC 2998 > 100 µM | CCRF-CEM > 100 µM | SN12C > 100 µM | DLD-1 > 100 µM | OVCAR-3 > 100 µM | SF-268 > 100 µM | HCT-116 > 100 µM | RPMI-8226 > 100 µM | SNB-75 94.4 µM | UO-31 > 100 µM | M14 > 100 µM | SNB-78 > 100 µM | ACHN > 100 µM | SK-MEL-28 > 100 µM | A498 > 100 µM | SF-539 > 100 µM | M19-MEL > 100 µM | HT-29 > 100 µM | NCI-H226 > 100 µM | DMS-114 > 100 µM | OVCAR-8 > 100 µM | A549 > 100 µM | SR > 100 µM | KM-20L2 > 100 µM | K562 > 100 µM | LOX IMVI > 100 µM | RXF 393 > 100 µM | UACC-62 > 100 µM | SF-295 > 100 µM | SK-MEL-2 > 100 µM | NCI-H522 > 100 µM | OVCAR-4 > 100 µM | LXFL 529 > 100 µM | 786-0 > 100 µM | HL-60 > 100 µM | HOP-92 > 100 µM | U-251 > 100 µM | HOP-18 > 100 µM | KM12 > 100 µM | Malme-3M > 100 µM | COLO 205 > 100 µM | OVCAR-5 > 100 µM | SW-620 > 100 µM | IGROV-1 > 100 µM | SNB-19 > 100 µM | TK-10 > 100 µM | SK-MEL-5 > 100 µM | HOP-62 > 100 µM

O=C(c1cccs1)N(C(=S)N1CCN(c2ccccc2)CC1)c1ccccc1
> 100 µM: HCT-15
inactive: CAKI-1 > 100 µM | DMS-273 > 100 µM | NCI-H460 > 100 µM | SK-OV-3 > 100 µM | UACC-257 > 100 µM | NCI-H23 > 100 µM | MOLT-4 > 100 µM | CCRF-CEM > 100 µM | SN12C > 100 µM | DLD-1 > 100 µM | OVCAR-3 > 100 µM | SF-268 > 100 µM | HCT-116 > 100 µM | RPMI-8226 > 100 µM | SNB-75 > 100 µM | UO-31 > 100 µM | M14 > 100 µM | SNB-78 > 100 µM | ACHN > 100 µM | SK-MEL-28 > 100 µM | SF-539 > 100 µM | M19-MEL > 100 µM | HT-29 > 100 µM | NCI-H226 47.6 µM | DMS-114 > 100 µM | OVCAR-8 > 100 µM | A549 > 100 µM | SR > 100 µM | KM-20L2 > 100 µM | K562 > 100 µM | LOX IMVI > 100 µM | RXF 393 > 100 µM | UACC-62 > 100 µM | SF-295 > 100 µM | SK-MEL-2 > 100 µM | NCI-H522 > 100 µM | OVCAR-4 > 100 µM | LXFL 529 > 100 µM | 786-0 > 100 µM | HL-60 > 100 µM | HOP-92 > 100 µM | U-251 > 100 µM | HOP-18 > 100 µM | KM12 > 100 µM | Malme-3M > 100 µM | COLO 205 > 100 µM | OVCAR-5 > 100 µM | SW-620 > 100 µM | IGROV-1 > 100 µM | SNB-19 > 100 µM | TK-10 > 100 µM | SK-MEL-5 > 100 µM | HOP-62 > 100 µM

CC(N)CC(=O)O (stereo not drawn)
> 5000 µM: HCT-15
inactive: EKVX > 5000 µM | DMS-273 > 5000 µM | NCI-H460 > 5000 µM | SK-OV-3 > 5000 µM | UACC-257 > 5000 µM | NCI-H23 > 5000 µM | MOLT-4 > 5000 µM | HCC 2998 > 5000 µM | CCRF-CEM > 5000 µM | SN12C > 5000 µM | DLD-1 > 5000 µM | OVCAR-3 > 5000 µM | SF-268 > 5000 µM | HCT-116 > 5000 µM | RPMI-8226 > 5000 µM | SNB-75 > 5000 µM | UO-31 > 5000 µM | M14 > 5000 µM | SNB-78 > 5000 µM | ACHN > 5000 µM | SK-MEL-28 > 5000 µM | A498 > 5000 µM | SF-539 > 5000 µM | M19-MEL > 5000 µM | HT-29 > 5000 µM | NCI-H226 > 5000 µM | DMS-114 > 5000 µM | A549 2850 µM | SR > 5000 µM | KM-20L2 > 5000 µM | K562 > 5000 µM | RXF 393 > 5000 µM | UACC-62 > 5000 µM | SF-295 > 5000 µM | SK-MEL-2 > 5000 µM | NCI-H522 > 5000 µM | OVCAR-4 > 5000 µM | LXFL 529 > 5000 µM | 786-0 > 5000 µM | HL-60 > 5000 µM | HOP-92 > 5000 µM | U-251 > 5000 µM | HOP-18 > 5000 µM | KM12 > 5000 µM | Malme-3M > 5000 µM | COLO 205 > 5000 µM | OVCAR-5 > 5000 µM | SW-620 > 5000 µM | IGROV-1 > 5000 µM | TK-10 > 5000 µM | SK-MEL-5 > 5000 µM
